Measurements: US20080242649A1, “New Combination 665” (priority 2007, published 2008)

Key:
Conditions in all cases: compound and its salts
[1] = target: T1, recombinant human α1D receptor (Homo sapiens, UniProt P25100); experiment: Adrenergic α1D [3H]-prazosin binding, HEK293 membranes
T1 construct: expressed in transfected cells; host or cells: HEK293 cells (membranes)
T1 sequence (P25100 1-572): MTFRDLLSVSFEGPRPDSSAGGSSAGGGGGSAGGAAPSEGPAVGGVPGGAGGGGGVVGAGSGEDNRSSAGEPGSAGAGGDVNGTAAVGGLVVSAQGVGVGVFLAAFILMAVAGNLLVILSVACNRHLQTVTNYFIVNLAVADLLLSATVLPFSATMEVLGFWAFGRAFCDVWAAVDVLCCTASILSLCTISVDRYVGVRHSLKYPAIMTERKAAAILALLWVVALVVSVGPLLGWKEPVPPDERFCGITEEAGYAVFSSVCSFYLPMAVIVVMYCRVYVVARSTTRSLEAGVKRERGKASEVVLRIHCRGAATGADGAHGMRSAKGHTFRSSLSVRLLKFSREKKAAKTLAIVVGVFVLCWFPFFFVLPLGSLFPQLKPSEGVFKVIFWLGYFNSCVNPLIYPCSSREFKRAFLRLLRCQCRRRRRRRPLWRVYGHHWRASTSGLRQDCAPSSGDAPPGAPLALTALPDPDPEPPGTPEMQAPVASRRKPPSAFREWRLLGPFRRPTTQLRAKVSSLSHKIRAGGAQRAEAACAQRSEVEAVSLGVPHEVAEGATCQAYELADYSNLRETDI
Procedure: Membranes were prepared from human embryonic kidney 293 (HEK293) cells expressing recombinant human α1D receptor. These were diluted in Assay Buffer (50 mM HEPES, 1 mM EDTA, 0.1% gelatin, pH 7.4) to provide a final concentration of membranes that gave a clear window between maximum and minimum specific binding.
(§1) Assays were performed in U-bottomed 96-well polypropylene plates. 10 μL [^3H]-prazosin (0.3 nM final concentration) and 10 μL of Compound A (10× final concentration) were added to each test well. For each assay plate 8 replicates were obtained for [^3H]-prazosin binding in the presence of 10 μL vehicle (10% (v/v) DMSO in Assay Buffer; defining maximum binding) or 10 μL BMY7378 (10 μM final concentration; defining non-specific binding (NSB)). Membranes were then added to achieve a final volume of 100 μL. […] Five washes with 250 μL wash buffer (50 mM HEPES, 1 mM EDTA, pH 7.4) were performed at 4° C. to remove unbound radioactivity. […] The plates were sealed (TopSeal A) and filter-bound radioactivity was measured with a scintillation counter (TopCount, Packard BioScience) using a 3-minute counting protocol.
(§2) Total specific binding (B0) was determined by subtracting the mean NSB from the mean maximum binding. […]

[2] = target: T2, recombinant human Dopamine Subtype D2s receptors (Homo sapiens, UniProt P14416); experiment: Dopamine D2 [3H]-spiperone binding
T2 construct: purchased Perkin Elmer
Procedure: (§3) Membranes containing recombinant human Dopamine Subtype D2s receptors were obtained from Perkin Elmer. These were diluted in Assay Buffer (50 mM HEPES, 1 mM EDTA, 120 mM NaCl, 0.1% gelatin, pH 7.4) to provide a final concentration of membranes that gave a clear window between maximum and minimum specific binding.
Assays were performed in U-bottomed 96-well polypropylene plates. 30 PL [^3H]-spiperone (0.16 nM final concentration) and 30 μL of Compound A (10× final concentration) were added to each test well. For each assay plate 8 replicates were obtained for [^3H]-spiperone binding in the presence of 30 PL vehicle (10% (v/v) DMSO in Assay Buffer; defining maximum binding) or 30 μL Haloperidol (10 PM final concentration; defining non-specific binding (NSB)). Membranes were then added to achieve a final volume of 300 μL. […] Five washes with 250 μL wash buffer (50 mM HEPES, 1 mM EDTA, 120 mM NaCl, pH 7.4) were performed at 4° C. to remove unbound radioactivity. […] The plates were sealed (TopSeal A) and filter-bound radioactivity was measured with a scintillation counter (TopCount, Packard BioScience) using a 3-minute counting protocol.
as §2

[3] = target: T3, recombinant human adrenergic beta 1 receptors (Homo sapiens, UniProt P08588); experiment: Adrenergic β1 [125I]-Iodocyanopindolol binding
T3 construct: purchased Euroscreen
Procedure: as §3, with “adrenergic beta 1” for “Dopamine Subtype D2s”, “Euroscreen.” for “Perkin Elmer.”
as §1, with “PL [1251]-Iodocyanopindolol (0.036” for “μL [^3H]-prazosin (0.3”, “[^125]-Iodocyanopindolol” for “[^3H]-prazosin”, “Propranolol” for “BMY7378”, “EDTA, 120 mM NaCl,” for “EDTA,”
as §2

T3 sequence (P08588 whole entry): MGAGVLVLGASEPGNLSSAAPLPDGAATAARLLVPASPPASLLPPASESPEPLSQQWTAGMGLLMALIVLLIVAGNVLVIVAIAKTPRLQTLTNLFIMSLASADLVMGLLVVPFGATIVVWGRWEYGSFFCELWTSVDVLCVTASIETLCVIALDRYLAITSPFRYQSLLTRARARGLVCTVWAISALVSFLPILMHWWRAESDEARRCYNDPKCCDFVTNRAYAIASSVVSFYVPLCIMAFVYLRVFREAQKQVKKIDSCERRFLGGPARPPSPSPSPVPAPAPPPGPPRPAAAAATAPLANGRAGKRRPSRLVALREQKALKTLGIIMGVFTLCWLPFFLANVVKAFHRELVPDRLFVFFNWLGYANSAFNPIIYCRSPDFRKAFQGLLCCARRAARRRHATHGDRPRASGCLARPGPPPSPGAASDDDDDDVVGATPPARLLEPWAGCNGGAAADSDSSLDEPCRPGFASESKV
T2 sequence (P14416 1-414 isoform P14416-2): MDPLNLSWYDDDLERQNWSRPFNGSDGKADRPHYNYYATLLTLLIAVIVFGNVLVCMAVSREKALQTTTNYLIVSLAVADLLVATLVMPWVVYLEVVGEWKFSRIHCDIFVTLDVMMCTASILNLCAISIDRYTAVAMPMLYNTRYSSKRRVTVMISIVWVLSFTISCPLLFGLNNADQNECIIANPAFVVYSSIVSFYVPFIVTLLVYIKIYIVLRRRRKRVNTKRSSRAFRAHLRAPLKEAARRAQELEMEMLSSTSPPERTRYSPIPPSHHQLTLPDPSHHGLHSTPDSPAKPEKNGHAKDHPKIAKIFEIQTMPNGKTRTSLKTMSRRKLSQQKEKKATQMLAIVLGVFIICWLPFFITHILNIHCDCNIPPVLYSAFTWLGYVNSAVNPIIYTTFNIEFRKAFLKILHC

CCN(CC)CCN(CCNCCc1ccc(O)c2[nH]c(=O)sc12)C(=O)CCOCCc1cccc2ccccc12 [N-[2-(Diethylamino)ethyl]-N-(2-{[2-(4-hydroxy-2-oxo-2,3-dihydro-1,3-benzothiazol-7-yl)ethyl]amino}ethyl)-3-[2-(1-naphthyl)ethoxy]propanamide]
≥ 10 fold: selectivity of β2 adrenoceptor agonism over adrenergic α1D [1] | selectivity of β2 adrenoceptor agonism over dopamine D2 [2] | selectivity of β2 adrenoceptor agonism over adrenergic β1 [3]
